Measurements as given in patent US5202350A, “Furanone anti-inflammatory agents” (Bristol-Myers Squibb Co., priority 1991, dated 1993).

Tests used:
[1] = target: T1, human platelet phospholipase A2 (Homo sapiens, UniProt P14555); assay: PLA2 Inhibition Assay (14C-oleate labeled E. coli membrane substrate); format: biochemical; conditions: human platelet PLA2, pH 7, 37° C., 7 min preincubation, 30 min incubation
T1 construct: The enzyme was isolated from human platelets; from tissue; host or cells: human platelets
T1 sequence (P14555 21-144): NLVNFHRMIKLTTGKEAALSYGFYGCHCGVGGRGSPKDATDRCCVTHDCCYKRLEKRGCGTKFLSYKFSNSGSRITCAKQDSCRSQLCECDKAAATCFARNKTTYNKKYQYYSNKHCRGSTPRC
Method: The utility of the compounds of the instant invention is shown by their inhibitory activity toward human platelet phospholipase A2 and their in vivo anti-inflammatory activity. The activity against human platelet phospholipase A2 was determined as described below:
The method used is similar to that reported by Franson, et al. [Jesse R. L. and Franson R. C., Biochim Biophys Acta 575:467-470 (1979), Franson R. C., Patriarca P., and Elsback P., J Lipid Res 15:380-388 (1974)]. The enzyme was isolated from human platelets. The substrate used consisted of ^14 C-oleate labeled Escherichia coli membranes. E. coli cells were grown in the presence of ^14 C-oleic acid and then autoclaved to prepare the membranes.
Various concentrations of test compounds are preincubated with PLA2 (3.6 μg/ml in a buffer consisting of 25 mM HEPES (pH 7), 150 mM NaCl, 5.0 mM CaCl2, and 10% DMSO (v/v, test compound solvent) at 37° C. for 7 minutes. The E. coli membrane substrate is then added (0.1 mM phospholipid, 0.005 μCi ^14 C) and the reaction is then incubated at 37° C. for 30 minutes. The reaction is terminated by the addition of 1.9 ml tetrahydrofuran (THF), and the entire solution is applied to a solid-phase extraction column (aminopropyl resin, Analytichem). The column is rinsed with an additional 1 ml of THF. The free fatty acid product of the reaction is then eluted from the column with 1 ml of 2% acetic acid (v/v) in THF and collected in a scintillation vial. The amount of free fatty acid product is determined by liquid scintillation counting. The amount of inhibition produced by the test compound is calculated by comparing the counts obtained in the presence of the compound to those obtained in its absence (solvent only). Background counts were determined by performing incubations in the absence of enzyme.
Percent inhibition is determined by the equation: [formula]
IC50 values (the concentration of inhibitor required to produce 50% inhibition) were determined by linear regression analysis of a plot of % inhibition versus log test compound concentration.

[2] = test system: ears of CD-1 mice; assay: Inhibition of Phorbol-Ester-Induced inflammation (TPA ear edema); format: in vivo; conditions: topical, six hours
Text: The method used is similar to that reported by Young, et al. [Young J. M., Wagner B. M., Spires D. A., J Invest Dermatol, 80:48-52(1983); DeYound L. M., Kheifets J. B., Ballaron S. J., Young J. M., Agents Actions 26:335-341 (1989)]. An inflammatory reaction is induced by the topical application of 0.01% (w/v) […] (TPA) to the ears of CD-1 mice. An acute inflammatory reaction is produced, resulting in ear edema. TPA, with and without various concentrations of test compound, was applied to the inner and outer aspects of the ear surface (10 μl/surface). After six hours, the mice were sacrificed and the ears removed. Ear tissue punches (5/16") were taken from each ear and weighed to measure edema.
The anti-inflammatory activity of the test compounds was determined by comparing the edema produced by TPA without test compound to that produced in its presence.
Percent inhibition values were determined by the equation: [formula]

Work on `CCCCCCCCCCC1CC(O)OC1=O` (centres unmarked) [Example 3, 3-n-Decyl-5-Hydroxy-3,4-Dihydro-Furan-2-One] yielded an IC50 [1] of 525 µM.
With `CCCCCCCCCCCC1CC(O)OC1=O` (centres unmarked) [Example 5, 3-n-Undecyl-5-Hydroxy-3,4-Dihydro-Furan-2-One] the “% Inhibition of Ear Edema” value ([2]; dose 2.6% (w/v)) was 34.6% and the IC50 [1] was 17 µM.
Work on `CCCCCCCCCCCCC1CC(O)OC1=O` (centres unmarked) [Example 7, 3-n-Dodecyl-5-Hydroxy-3,4-Dihydro-Furan-2-One] yielded an IC50 [1] of 18 µM.
`O=C1OC(O)CC1CCCCCCCc1ccccc1` (centres unmarked) [Example 9] showed an IC50 [1] of 379 µM.
`CCCCCC1CC(O)OC1=O` (centres unmarked) [Example 11, 3-n-Amyl-5-Hydroxy-3,4-Dihyro-Furan-2-One] was tested, and the IC50 [1] was > 500 µM.
`CCCCCCCCCCCCCCCCC1CC(O)OC1=O` (centres unmarked) [Example 13, 3-n-Hexadecyl-5-Hydroxy-3,4-Dihydro-Furan-2-One] was tested, and the “% Inhibition of Ear Edema” value ([2]; dose 2.5% (w/v)) was 6.8%, the “% Inhibition of Ear Edema” value ([2]; dose 5.0% (w/v)) was 24.6% and the “% Inhibition of Ear Edema” value ([2]; dose 7.5% (w/v)) was 33.5%. For the same compound, the “% Inhibition of Ear Edema” value ([2]; dose 10% (w/v)) was 45% and the IC50 [1] was 59 µM.
